This note sets out measurements from ChEMBL document CHEMBL5465560, “Selectivity Literature for EUbOPEN Chemogenomic Library” (2024).

Where only a bound is given, the exact number is not on record here.

Assay [1] addresses T1, Mitogen-activated protein kinase 12 (Homo sapiens) (UniProt P53778).
T1 sequence (whole entry): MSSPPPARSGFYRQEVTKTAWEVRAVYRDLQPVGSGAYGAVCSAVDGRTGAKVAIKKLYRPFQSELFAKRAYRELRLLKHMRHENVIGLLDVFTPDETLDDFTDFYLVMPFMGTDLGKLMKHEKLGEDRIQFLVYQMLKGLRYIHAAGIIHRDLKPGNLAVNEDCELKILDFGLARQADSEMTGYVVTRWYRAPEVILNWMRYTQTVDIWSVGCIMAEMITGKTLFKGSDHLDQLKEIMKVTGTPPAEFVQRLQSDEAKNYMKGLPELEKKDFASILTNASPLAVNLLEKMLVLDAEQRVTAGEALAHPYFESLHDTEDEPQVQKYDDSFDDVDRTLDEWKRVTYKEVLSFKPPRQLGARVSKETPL
Nature of the assay: Selectivity interaction (SelectScreen profiling (Invitrogen)) EUB0000607a MAPK12. As to conditions: at 2 µM.

Assay [2] has as its target Histone-lysine N-methyltransferase PRDM9 (Homo sapiens) (UniProt Q9NQV7). As to conditions: at 1 µM.
Assay [3] deals with Serine/threonine-protein kinase pim-2 (Homo sapiens, UniProt Q9P1W9). Nature of the assay: Selectivity interaction (KinomeScan (DiscoverX)) EUB0001079a PIM2. The note with it: at 1 µM.
Chain of Serine/threonine-protein kinase pim-2 (Q9P1W9 whole entry, looked up): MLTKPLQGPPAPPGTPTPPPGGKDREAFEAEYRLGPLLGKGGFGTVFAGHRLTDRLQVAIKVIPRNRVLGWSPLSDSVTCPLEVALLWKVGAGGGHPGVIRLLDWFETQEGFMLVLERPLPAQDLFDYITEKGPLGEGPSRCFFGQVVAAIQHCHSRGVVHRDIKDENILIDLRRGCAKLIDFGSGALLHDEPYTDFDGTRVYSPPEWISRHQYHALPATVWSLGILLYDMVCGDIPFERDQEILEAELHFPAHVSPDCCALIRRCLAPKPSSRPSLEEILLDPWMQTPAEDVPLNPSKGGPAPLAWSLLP
Assay [4] addresses Serine/threonine-protein kinase VRK2 (Homo sapiens) (UniProt Q86Y07). Nature of the assay: Selectivity interaction (KinomeScan (DiscoverX)) EUB0001079a VRK2. The note with it: at 1 µM.
Assay [5] addresses T2, Serine/threonine-protein kinase ULK1 (Homo sapiens) (UniProt O75385).
T2 sequence (whole entry): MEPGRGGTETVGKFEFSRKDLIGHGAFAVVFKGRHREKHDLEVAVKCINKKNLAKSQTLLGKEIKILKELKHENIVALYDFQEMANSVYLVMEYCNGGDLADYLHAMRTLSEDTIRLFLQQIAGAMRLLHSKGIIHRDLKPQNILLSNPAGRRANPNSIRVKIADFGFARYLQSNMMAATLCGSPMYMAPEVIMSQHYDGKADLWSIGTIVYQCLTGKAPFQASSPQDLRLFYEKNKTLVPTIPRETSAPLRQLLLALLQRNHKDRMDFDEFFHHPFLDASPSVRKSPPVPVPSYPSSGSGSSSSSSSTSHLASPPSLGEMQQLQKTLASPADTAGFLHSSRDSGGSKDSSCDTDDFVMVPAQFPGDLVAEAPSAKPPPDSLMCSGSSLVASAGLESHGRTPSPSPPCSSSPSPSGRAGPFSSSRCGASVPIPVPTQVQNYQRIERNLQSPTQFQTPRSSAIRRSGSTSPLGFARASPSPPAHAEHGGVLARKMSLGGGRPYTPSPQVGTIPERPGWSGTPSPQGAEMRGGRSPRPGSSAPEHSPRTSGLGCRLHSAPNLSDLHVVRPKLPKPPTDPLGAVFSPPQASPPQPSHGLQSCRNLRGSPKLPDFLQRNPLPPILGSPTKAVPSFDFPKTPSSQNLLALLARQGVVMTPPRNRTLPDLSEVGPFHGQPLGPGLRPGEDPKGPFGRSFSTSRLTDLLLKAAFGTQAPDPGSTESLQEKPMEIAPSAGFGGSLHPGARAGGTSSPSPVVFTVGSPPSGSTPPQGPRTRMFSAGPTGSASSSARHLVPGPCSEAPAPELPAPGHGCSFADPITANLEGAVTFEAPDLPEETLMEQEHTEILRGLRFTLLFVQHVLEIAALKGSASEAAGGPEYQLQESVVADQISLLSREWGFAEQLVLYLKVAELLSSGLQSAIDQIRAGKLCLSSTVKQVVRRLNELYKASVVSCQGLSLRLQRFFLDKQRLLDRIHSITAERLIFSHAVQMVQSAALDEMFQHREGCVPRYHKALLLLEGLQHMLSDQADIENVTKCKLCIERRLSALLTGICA
Nature of the assay: Selectivity interaction (ActivX KiNativ screen (kinase selectivity in THP-1 cell lysates)) EUB0000639a ULK1. As to conditions: lysate, at 5 µM. The format is subcellular.

Assay [6] deals with Serine/threonine-protein kinase PLK1 (Homo sapiens, UniProt P53350).
Chain of Serine/threonine-protein kinase PLK1 (P53350 whole entry): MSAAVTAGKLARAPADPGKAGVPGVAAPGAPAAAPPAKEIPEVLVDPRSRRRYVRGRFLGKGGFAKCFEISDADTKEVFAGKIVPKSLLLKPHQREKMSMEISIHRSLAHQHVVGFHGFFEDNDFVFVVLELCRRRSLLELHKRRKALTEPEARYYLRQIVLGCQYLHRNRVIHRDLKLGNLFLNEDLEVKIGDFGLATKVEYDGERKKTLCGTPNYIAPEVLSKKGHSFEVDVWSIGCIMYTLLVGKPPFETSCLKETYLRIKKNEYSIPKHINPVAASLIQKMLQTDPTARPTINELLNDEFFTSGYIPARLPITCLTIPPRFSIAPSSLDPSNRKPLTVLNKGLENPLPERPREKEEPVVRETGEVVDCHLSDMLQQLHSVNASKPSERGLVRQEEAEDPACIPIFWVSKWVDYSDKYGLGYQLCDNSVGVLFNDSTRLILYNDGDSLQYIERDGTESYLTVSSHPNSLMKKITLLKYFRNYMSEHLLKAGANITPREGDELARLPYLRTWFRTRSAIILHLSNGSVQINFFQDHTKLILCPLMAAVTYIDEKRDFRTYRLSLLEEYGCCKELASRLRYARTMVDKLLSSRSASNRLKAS
The target of assay [7] is Dual specificity tyrosine-phosphorylation-regulated kinase 1A (Homo sapiens, UniProt Q13627). Nature of the assay: Selectivity interaction (Enzymatic assay (Eurofins)) EUB0001049a DYRK1A.
Assay [8] has as its target T3, Dual specificity protein kinase TTK (Homo sapiens) (UniProt P33981).
T3 sequence (whole entry): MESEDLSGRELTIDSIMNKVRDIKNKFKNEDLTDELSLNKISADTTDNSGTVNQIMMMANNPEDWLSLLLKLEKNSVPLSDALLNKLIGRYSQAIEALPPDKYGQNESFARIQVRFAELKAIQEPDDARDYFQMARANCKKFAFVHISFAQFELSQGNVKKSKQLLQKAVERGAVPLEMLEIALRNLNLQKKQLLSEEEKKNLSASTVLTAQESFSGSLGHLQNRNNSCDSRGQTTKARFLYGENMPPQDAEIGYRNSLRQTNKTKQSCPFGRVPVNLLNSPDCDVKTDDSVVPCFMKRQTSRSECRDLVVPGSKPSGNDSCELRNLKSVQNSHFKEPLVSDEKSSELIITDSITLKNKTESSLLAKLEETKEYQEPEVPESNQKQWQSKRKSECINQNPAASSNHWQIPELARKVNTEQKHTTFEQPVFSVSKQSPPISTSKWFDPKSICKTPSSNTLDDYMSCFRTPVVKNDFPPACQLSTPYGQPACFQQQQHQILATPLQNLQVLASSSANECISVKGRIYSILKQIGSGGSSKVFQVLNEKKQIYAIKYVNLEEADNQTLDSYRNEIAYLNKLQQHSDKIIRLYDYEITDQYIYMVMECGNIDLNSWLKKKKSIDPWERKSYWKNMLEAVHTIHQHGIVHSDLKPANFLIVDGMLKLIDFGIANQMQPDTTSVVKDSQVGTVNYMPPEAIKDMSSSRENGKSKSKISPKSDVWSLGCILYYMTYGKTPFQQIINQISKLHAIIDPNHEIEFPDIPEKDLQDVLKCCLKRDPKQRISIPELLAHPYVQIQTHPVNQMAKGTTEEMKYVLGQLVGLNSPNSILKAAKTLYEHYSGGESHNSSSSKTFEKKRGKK
Nature of the assay: Selectivity interaction (KinomeScan (DiscoverX)) EUB0001049a TTK. As to conditions: at 1 µM.

Assay [9] concerns the target Serine/threonine-protein kinase PAK 3 (Homo sapiens) (UniProt O75914). Nature of the assay: Selectivity interaction (KinomeScan (DiscoverX)) EUB0000695a PAK3. The note with it: at 100 nM.
Assay [10] has as its target Histone-lysine N-methyltransferase SUV39H2 (Homo sapiens) (UniProt Q9H5I1). Nature of the assay: Selectivity interaction (Methyltransferase screen (radiometric assays, panel of 8 PRMTs, 21 protein lysine methyltransferases, 3 DNA methyltransferases, and one RNA methyltransferase)) EUB0000272b SUV39H2.

Chain of Histone-lysine N-methyltransferase SUV39H2 (Homo sapiens) (Q9H5I1 whole entry): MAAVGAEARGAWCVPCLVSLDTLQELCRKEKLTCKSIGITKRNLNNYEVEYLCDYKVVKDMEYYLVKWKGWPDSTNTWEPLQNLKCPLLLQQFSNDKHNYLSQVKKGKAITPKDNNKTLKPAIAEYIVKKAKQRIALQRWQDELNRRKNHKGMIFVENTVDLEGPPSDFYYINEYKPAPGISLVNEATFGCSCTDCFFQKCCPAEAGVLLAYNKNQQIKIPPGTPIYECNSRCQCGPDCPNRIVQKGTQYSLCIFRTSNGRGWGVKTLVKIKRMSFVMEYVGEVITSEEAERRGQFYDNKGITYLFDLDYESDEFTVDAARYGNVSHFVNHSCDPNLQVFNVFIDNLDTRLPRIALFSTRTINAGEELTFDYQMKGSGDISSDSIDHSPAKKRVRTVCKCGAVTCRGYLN
Chain of Serine/threonine-protein kinase PAK 3 (Homo sapiens) (O75914 whole entry, looked up): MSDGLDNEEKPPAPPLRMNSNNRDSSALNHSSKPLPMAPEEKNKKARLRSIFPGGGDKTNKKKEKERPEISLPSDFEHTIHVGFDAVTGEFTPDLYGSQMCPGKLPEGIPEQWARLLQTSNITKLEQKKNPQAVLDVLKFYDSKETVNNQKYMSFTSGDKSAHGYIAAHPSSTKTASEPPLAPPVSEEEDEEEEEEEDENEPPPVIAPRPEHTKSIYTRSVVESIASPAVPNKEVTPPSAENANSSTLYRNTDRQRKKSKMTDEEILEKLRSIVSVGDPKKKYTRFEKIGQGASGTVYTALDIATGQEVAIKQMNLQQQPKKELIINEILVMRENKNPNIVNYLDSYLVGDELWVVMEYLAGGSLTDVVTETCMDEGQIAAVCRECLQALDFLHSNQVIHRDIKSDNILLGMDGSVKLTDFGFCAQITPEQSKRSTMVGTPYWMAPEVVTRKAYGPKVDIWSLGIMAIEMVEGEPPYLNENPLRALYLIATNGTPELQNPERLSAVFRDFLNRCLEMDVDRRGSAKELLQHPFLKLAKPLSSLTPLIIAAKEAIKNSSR
Chain of Serine/threonine-protein kinase VRK2 (Homo sapiens) (Q86Y07 whole entry): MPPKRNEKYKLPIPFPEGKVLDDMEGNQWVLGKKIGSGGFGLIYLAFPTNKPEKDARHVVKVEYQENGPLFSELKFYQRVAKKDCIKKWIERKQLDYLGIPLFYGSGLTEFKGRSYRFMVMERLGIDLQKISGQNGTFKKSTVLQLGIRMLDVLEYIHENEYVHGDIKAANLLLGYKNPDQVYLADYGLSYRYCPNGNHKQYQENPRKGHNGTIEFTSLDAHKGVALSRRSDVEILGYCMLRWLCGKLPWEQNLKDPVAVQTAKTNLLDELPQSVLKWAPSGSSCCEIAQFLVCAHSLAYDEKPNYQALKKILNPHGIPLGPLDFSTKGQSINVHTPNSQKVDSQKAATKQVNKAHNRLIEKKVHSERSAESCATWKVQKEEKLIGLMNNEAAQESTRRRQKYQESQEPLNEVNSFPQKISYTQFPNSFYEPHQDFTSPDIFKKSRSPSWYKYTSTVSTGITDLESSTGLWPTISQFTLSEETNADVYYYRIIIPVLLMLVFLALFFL
Chain of Histone-lysine N-methyltransferase PRDM9 (Homo sapiens) (Q9NQV7 whole entry): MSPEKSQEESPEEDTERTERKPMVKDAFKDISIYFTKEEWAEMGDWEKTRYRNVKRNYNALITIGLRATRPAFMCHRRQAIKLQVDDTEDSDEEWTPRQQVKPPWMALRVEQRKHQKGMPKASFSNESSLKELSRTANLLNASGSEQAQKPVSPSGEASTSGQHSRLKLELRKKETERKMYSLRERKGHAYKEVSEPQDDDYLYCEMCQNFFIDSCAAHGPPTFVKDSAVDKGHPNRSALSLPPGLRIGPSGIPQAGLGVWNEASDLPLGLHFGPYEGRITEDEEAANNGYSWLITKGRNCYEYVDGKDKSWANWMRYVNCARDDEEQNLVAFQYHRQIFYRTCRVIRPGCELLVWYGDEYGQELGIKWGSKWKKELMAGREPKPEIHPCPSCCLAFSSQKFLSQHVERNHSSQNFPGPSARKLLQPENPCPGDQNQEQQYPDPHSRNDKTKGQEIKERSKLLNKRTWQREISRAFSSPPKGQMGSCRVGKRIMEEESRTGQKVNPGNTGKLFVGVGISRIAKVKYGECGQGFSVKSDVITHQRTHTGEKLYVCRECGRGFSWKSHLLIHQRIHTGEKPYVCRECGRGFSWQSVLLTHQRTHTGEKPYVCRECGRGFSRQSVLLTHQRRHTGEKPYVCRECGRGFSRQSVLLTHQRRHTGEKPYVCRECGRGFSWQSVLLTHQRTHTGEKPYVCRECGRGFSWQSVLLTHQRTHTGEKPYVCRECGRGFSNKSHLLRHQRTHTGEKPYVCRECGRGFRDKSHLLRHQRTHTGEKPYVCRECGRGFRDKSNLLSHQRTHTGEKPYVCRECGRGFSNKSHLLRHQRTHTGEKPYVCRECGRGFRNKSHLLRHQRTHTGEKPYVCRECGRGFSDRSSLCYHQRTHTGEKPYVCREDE

Consider `CNC(=O)Nc1ccc(-c2nc(N3CC4CCC(C3)O4)c3cnn(C4CCC5(CC4)OCCO5)c3n2)cc1`, for which the % of inhibition in assay [1] was -2%.
Regarding `CNCCN1CCC(c2cc(CN(C)C(=O)c3cccc(Oc4ccccc4)c3)ccn2)CC1`, in assay [2], the % activity was > 90%.
`Nc1cnc(N2CCc3cc(S(=O)(=O)Nc4c(F)cc(Cl)cc4F)cc(N4CCCC4=O)c32)nc1` [TP-020n]: the % of control came out at 85% in assay [3] and 100% in assay [4].
Consider `CC[C@@H]1[C@H](F)C(=O)N[C@@H]1COc1nccc2cc(C(N)=O)c(OC)cc12` [ZIMLOVISERTIB], for which the % of inhibition in assay [5] is -74.1%.
As for `CCc1cccc(CC)c1NC(=O)c1nn(C)c2c1CCc1cnc(Nc3ccc(C(=O)NC4CCN(C)CC4)cc3OC(F)(F)F)nc1-2`, the half-maximal inhibitory concentration (IC50) in assay [6] was > 10 µM.
For `COc1cc(Nc2nc(C)cc(-c3cnn4nc(OC)ccc34)n2)cc(C(F)(F)F)c1`, the IC50 in assay [7] is > 10 µM. In [8], this compound yielded a % of control of 90%.
`Cc1cc(F)c(C(=O)Nc2cccc(-c3nncn3C(C)C)n2)cc1-n1cnc(C2CC2)c1` came in with a % of control in [9] of 89%.
As to `Cc1cc(C)cc([C@H]2c3cc(C)ccc3NC(=O)CN2C(=O)c2ccc(Br)s2)c1`, the % of activity was 99.7% in [10] (at 1 µM) and 98% in assay [10] (at 10 µM).
